What was measured:
MeV F (S262R) = MeV F (S262R) (Measles virus, UniProt Q786F3, S262R); type: cell-based; settings: 1 μM, 60 min 37 °C, then 10 mM zanamivir; triplicate experiments
MeV F = MeV F (Measles virus, UniProt Q786F3); type: cell-based; settings: with or without 3g, coincubation or sequential incubation; Figure S17

With `N#Cc1cccc(NC(=O)Cc2ccccc2)c1` [3g, N-(3-Cyanophenyl)-2-phenylacetamide] the “step of entry at which the compound acts (RBCs released, retained or fused)” value (MeV F (S262R)) was “reversibly bound RBC” and the “colocalization of [FIP–HRC]2–PEG11 with F” value (MeV F) was “colocalization is disrupted”.
